Data on six molecules can be found in USRE50715E1, “Synthetic biochemistry molecular purge valve module that maintain co-factor balance” (The Regents of the University of California, priority 2014, dated 2025).

In general, Km refers to the substrate concentration at which the rate is half of its maximum.

The target in data set [1] is T1, G. stearothermophilus pyruvate dehydrogenase complex (GsPDH-NAD+, PDH^NADH), wild type (E1a SEQ ID NO: 1, E1b SEQ ID NO: 2, E2 SEQ ID NO: 3, E3^NADH SEQ ID NO: (Geobacillus stearothermophilus, UniProt P11959)).
T1 construct: made in house; host or cells: E. coli
Description: PDH kinetics, monitoring the reduction of NAD(P)^+ at 340 nm. The class given is biochemical. The procedure: (§1) The individual domains of G. stearothermophilus PDH were partially purified from E. coli lysates by heat prior to modification and reconstitution of the PDH complex. E1αβ, E2, or E3 containing lysates were incubated at 65° C. for 35 minutes to heat denature E. coli proteins followed by centrifugation at 30,000×g for 20 min to pellet the precipitated proteins. […] Next, the E2 domain was lipoated in the heated extract by the addition of 1 mM (±)-α-lipoic acid, 2 mM ATP, 3 mM MgCl2, and 50 μg of purified 6×His-LplA. The lipoation reaction was then allowed to proceed with gentle mixing overnight at 25° C., yielding lipoated E2 (E2lip). After lipoation, E1αβ, E2lip, and E3 were mixed in a 3:1:3 molar ratio and incubated for at least 1 hour at 25° C. to form the active GsPDH complex. The GsPDH complex was then isolated by ultracentrifugation (Beckman) for 4 hours at 95,000×g. […] The reconstituted complex was stored at 4° C. until use.

Data set [2] concerns the target T2, L. lactis NADH oxidase (H2O forming), NoxE, SEQ ID NO: 10 (Lactococcus lactis, UniProt Q9CIG9).
T2 sequence (Q9CIG9 1-446): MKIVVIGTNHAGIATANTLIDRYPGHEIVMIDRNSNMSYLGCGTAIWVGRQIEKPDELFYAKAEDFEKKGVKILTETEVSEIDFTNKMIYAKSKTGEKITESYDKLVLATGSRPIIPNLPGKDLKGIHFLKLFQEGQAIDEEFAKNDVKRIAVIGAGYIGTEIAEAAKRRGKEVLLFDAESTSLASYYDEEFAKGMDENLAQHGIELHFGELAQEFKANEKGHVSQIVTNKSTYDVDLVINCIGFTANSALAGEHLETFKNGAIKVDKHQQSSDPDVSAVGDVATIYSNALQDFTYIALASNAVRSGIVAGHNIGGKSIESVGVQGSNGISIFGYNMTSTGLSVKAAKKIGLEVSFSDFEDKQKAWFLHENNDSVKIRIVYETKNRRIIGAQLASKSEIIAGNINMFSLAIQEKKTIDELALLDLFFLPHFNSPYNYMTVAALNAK
The experiment in a line: NoxE kinetics, monitoring the oxidation of NAD(P)H at 340 nm. It is filed as biochemical.

Data set [3] has as its target T3, G. stearothermophilus pyruvate dehydrogenase complex, engineered mutant (GsPDH-NADP, PDH^NADPH), E3 mutant E206V, G207R, A208K, S213R (E3^NADPH SEQ ID NO: 7); E1 (Geobacillus stearothermophilus, UniProt P11959, A208K/E206V/G188A/G192A/G207R/S213R).
T3 construct: made in house; host or cells: E. coli
Description: PDH kinetics, monitoring the reduction of NAD(P)^+ at 340 nm. The class given is biochemical. As for the experimental part: as §1

Substrate in data set [4]: NC(=O)C1=CN([C@@H]2O[C@H](COP(=O)(O)OP(=O)(O)OC[C@H]3O[C@@H](n4cnc5c(N)ncnc54)[C@H](OP(=O)(O)O)[C@@H]3O)[C@@H](O)[C@H]2O)C=CC1
Description: purified protein, by the assay type. To be noted: other: 100 mM tris-HCl pH 7.5, 5 mM MgCl2, 5 mM KCl, 0.2 mM NAD(P)H.

Substrate in data set [5]: NC(=O)C1=CN([C@@H]2O[C@H](COP(=O)(O)OP(=O)(O)OC[C@H]3O[C@@H](n4cnc5c(N)ncnc54)[C@H](O)[C@@H]3O)[C@@H](O)[C@H]2O)C=CC1
Description: purified protein, by the assay type. As to conditions: other: 100 mM tris-HCl pH 7.5, 5 mM MgCl2, 5 mM KCl, 0.2 mM NAD(P)H.

Substrate in data set [6]: NC(=O)c1ccc[n+]([C@@H]2O[C@H](COP(=O)(O)OP(=O)(O)OC[C@H]3O[C@@H](n4cnc5c(N)ncnc54)[C@H](O)[C@@H]3O)[C@@H](O)[C@H]2O)c1
The experiment in a line: PDH kinetics, monitoring the reduction of NAD(P)^+ at 340 nm. It is filed as biochemical, G. stearothermophilus. To be noted: other: 50 mM Tris pH 7.5, 5 mM MgCl2, 5 mM pyruvate, 1 mM CoA, 0.5 mM NAD(P)+.

Substrate in data set [7]: NC(=O)c1ccc[n+]([C@@H]2O[C@H](COP(=O)(O)OP(=O)(O)OC[C@H]3O[C@@H](n4cnc5c(N)ncnc54)[C@H](OP(=O)(O)O)[C@@H]3O)[C@@H](O)[C@H]2O)c1
The data set is described as above. As to conditions: other: 50 mM Tris pH 7.5, 5 mM MgCl2, 5 mM pyruvate, 1 mM CoA, 0.5 mM NAD(P)+. The class given is biochemical, G. stearothermophilus.

Substrate in data set [8]: NC(=O)c1ccc[n+]([C@@H]2O[C@H](COP(=O)(O)OP(=O)(O)OC[C@H]3O[C@@H](n4cnc5c(N)ncnc54)[C@H](O)[C@@H]3O)[C@@H](O)[C@H]2O)c1
The experiment in a line: cells, lysate or membranes named. To be noted: other: 50 mM Tris pH 7.5, 5 mM MgCl2, 5 mM pyruvate, 1 mM CoA, 0.5 mM NAD(P)+.

Substrate in data set [9]: NC(=O)c1ccc[n+]([C@@H]2O[C@H](COP(=O)(O)OP(=O)(O)OC[C@H]3O[C@@H](n4cnc5c(N)ncnc54)[C@H](OP(=O)(O)O)[C@@H]3O)[C@@H](O)[C@H]2O)c1
Description: cells, lysate or membranes named. To be noted: other: 50 mM Tris pH 7.5, 5 mM MgCl2, 5 mM pyruvate, 1 mM CoA, 0.5 mM NAD(P)+.

Consider `NC(=O)c1ccc[n+]([C@@H]2O[C@H](COP(=O)(O)OP(=O)(O)OC[C@H]3O[C@@H](n4cnc5c(N)ncnc54)[C@H](O)[C@@H]3O)[C@@H](O)[C@H]2O)c1` [NAD+, nicotinamide adenine dinucleotide], for which the “kcat ratio, NAD^+ vs NADP^+” value in [1] (kcat higher with NAD^+ than NADP^+) came to 11.2 times. Further, in data set [1] (kcat/Km higher with NAD^+ than NADP^+), the “kcat/Km ratio, NAD^+ vs NADP^+” value came out at 1150 times.

In the case of `NC(=O)C1=CN([C@@H]2O[C@H](COP(=O)(O)OP(=O)(O)OC[C@H]3O[C@@H](n4cnc5c(N)ncnc54)[C@H](O)[C@@H]3O)[C@@H](O)[C@H]2O)C=CC1` [NADH], the “Kcat ratio, NADH vs NADPH” value in [2] (Kcat greater with NADH than NADPH) amounted to 248.8 times. Further, in data set [2] (kcat/Km greater with NADH than NADPH), the “kcat/Km ratio, NADH vs NADPH” value is given as 9900 times.

As to `NC(=O)c1ccc[n+]([C@@H]2O[C@H](COP(=O)(O)OP(=O)(O)OC[C@H]3O[C@@H](n4cnc5c(N)ncnc54)[C@H](OP(=O)(O)O)[C@@H]3O)[C@@H](O)[C@H]2O)c1` [NADP+], in data set [3] (kcat higher with NADP^+ than NAD+), the “kcat ratio, NADP^+ vs NAD+” value worked out at 7.3 times. In data set [3] (kcat/Km higher with NADP^+ than NAD+), the “kcat/Km ratio, NADP^+ vs NAD+” value is recorded as 21 times.

B1: L. lactis NADH oxidase (H2O forming), NoxE, SEQ ID NO: 10 (Lactococcus lactis subsp. lactis Il1403) (protein)
chain: MKIVVIGTNHAGIATANTLIDRYPGHEIVMIDRNSNMSYLGCGTAIWVGRQIEKPDELFYAKAEDFEKKGVKILTETEVSEIDFTNKMIYAKSKTGEKITESYDKLVLATGSRPIIPNLPGKDLKGIHFLKLFQEGQAIDEEFAKNDVKRIAVIGAGYIGTEIAEAAKRRGKEVLLFDAESTSLASYYDEEFAKGMDENLAQHGIELHFGELAQEFKANEKGHVSQIVTNKSTYDVDLVINCIGFTANSALAGEHLETFKNGAIKVDKHQQSSDPDVSAVGDVATIYSNALQDFTYIALASNAVRSGIVAGHNIGGKSIESVGVQGSNGISIFGYNMTSTGLSVKAAKKIGLEVSFSDFEDKQKAWFLHENNDSVKIRIVYETKNRRIIGAQLASKSEIIAGNINMFSLAIQEKKTIDELALLDLFFLPHFNSPYNYMTVAALNAK
B1: the Km stood at 2951.5 ± 770 µM in [4] and 74.93 ± 26 µM in data set [5].

B2: G. stearothermophilus pyruvate dehydrogenase complex, engineered mutant (GsPDH-NADP, PDH^NADPH), E3 mutant E206V, G207R, A208K, S213R (E3^NADPH SEQ ID NO: 7; … (protein)
chain: MVVGDFAIETETLVVGAGPGGYVAAIRAAQLGQKVTIVEKGNLGGVCLNVGCIPSKALISASHRYEQAKHSEEMGIKAENVTIDFAKVQEWKASVVKKLTGGVEGLLKGNKVEIVKGEAYFVDANTVRVVNGDSAQTYTFKNAIIATGSRPIELPNFKFSNRILDSTGALNLGEVPKSLVVIGGGYIAIELATAYANFGTKVTILVRKGEILRGFEKQMAAIIKKRLKKKGVEVVTNALAKGAEEREDGVTVTYEANGETKTIDADYVLVTVGRRPNTDELGLEQIGIKMTNRGLIEVDQQCRTSVPNIFAIGDIVPGPALAHKASYEGKVAAEAIAGHPSAVDYVAIPAVVFSDPECASVGYFEQQAKDEGIDVIAAKFPFAANGRALALNDTDGFLKLVVRKEDGVIIGAQIIGPNASDMIAELGLAIEAGMTAEDIALTIHAHPTLGEIAMEAAEVALGTPIHIITK
notes: made in house; host or cells: E. coli
B2: the values for the Km in data set [6] and in [7] were 452.7 ± 178 µM and 157 ± 13 µM, respectively.

B3: G. stearothermophilus pyruvate dehydrogenase complex (GsPDH-NAD+, PDH^NADH), wild type (E1a SEQ ID NO: 1, E1b SEQ ID NO: 2, E2 SEQ ID NO: 3, E3^NADH SEQ ID NO: … (protein)
chain: MVVGDFAIETETLVVGAGPGGYVAAIRAAQLGQKVTIVEKGNLGGVCLNVGCIPSKALISASHRYEQAKHSEEMGIKAENVTIDFAKVQEWKASVVKKLTGGVEGLLKGNKVEIVKGEAYFVDANTVRVVNGDSAQTYTFKNAIIATGSRPIELPNFKFSNRILDSTGALNLGEVPKSLVVIGGGYIGIELGTAYANFGTKVTILEGAGEILSGFEKQMAAIIKKRLKKKGVEVVTNALAKGAEEREDGVTVTYEANGETKTIDADYVLVTVGRRPNTDELGLEQIGIKMTNRGLIEVDQQCRTSVPNIFAIGDIVPGPALAHKASYEGKVAAEAIAGHPSAVDYVAIPAVVFSDPECASVGYFEQQAKDEGIDVIAAKFPFAANGRALALNDTDGFLKLVVRKEDGVIIGAQIIGPNASDMIAELGLAIEAGMTAEDIALTIHAHPTLGEIAMEAAEVALGTPIHIITK
Consider B3, for which the Km is 13.38 ± 0.83 µM in data set [8] and 1381 ± 410 µM in [9].
